These results are taken from patent US9133160B2, “Substituted benzimidazole and imidazopyridine compounds useful as CYP17 modulators” (Bristol-Meyers Squibb Company, priority 2010, dated 2015).

Human CYP17, sequence (P05093 whole entry): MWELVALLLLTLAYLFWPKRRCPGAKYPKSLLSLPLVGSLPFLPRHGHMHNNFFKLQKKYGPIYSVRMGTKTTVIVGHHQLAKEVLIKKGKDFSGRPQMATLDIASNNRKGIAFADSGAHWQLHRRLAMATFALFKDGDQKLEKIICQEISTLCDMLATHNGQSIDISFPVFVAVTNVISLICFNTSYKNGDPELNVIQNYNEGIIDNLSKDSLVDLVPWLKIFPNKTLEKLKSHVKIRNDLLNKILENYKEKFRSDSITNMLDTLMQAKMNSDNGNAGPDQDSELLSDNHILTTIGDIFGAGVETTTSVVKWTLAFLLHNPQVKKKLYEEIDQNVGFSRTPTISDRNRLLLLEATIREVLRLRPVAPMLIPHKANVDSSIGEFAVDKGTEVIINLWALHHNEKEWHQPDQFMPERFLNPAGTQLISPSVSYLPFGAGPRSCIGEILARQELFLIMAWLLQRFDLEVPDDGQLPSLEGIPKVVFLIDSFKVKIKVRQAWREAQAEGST

One test addresses Human CYP17 (Homo sapiens (Human), UniProt P05093). Nature of the test: CYP17 Total SPA Assay. Format: biochemical. The note with it: microsomes from HEK2 cells stably transfected with CYP17; 3H-Pregnenolone 1 uM, NADPH 2 mM; read-out: Human CYP17 Inhibition SPA IC50. As for the experimental part:
CYP17 Total SPA Assay The assays were performed in U-bottom 384-well optiplates. […] The reaction was initiated by the combination of the microsomes and substrates in wells containing compound. The reaction was incubated at room temperature for 45 minutes and terminated by adding 7.5 μl of 0.2N HCl to each well. […] The plate was sealed and incubated overnight with shaking at 4° C. The beads were allowed to settle in the plate for 1 hour and the plate read on a TOPCOUNT® (Perkin-Elmer) plate reader. […] The final concentration of reagents in the assays are NADPH, 2 mM; 3H-Pregnenolone, 1 uM; microsomes, 1.25 ug/ml; […] Dose response curves were generated to determine the concentration required inhibiting 50% of enzyme activity (IC50). Compounds were dissolved at 10 mM in dimethylsulfoxide (DMSO) and evaluated at eleven concentrations, each in duplicate. IC50 values were derived by non-linear regression analysis. Table 3 below lists the IC50 values for the following examples of this invention measured in the Total CYP17 SPA Assay hereinabove.
Turning to `Cc1ccncc1-c1cccc2c1ncn2-c1ccccn1` [Example 2, 4-(4-methylpyridin-3-yl)-1-(pyridin-2-yl)-1H-benzo[d]imidazole], the IC50 came to 0.0058 µM.

In the case of `Cc1ccncc1-c1cccc2c1ncn2-c1cnccn1` [Example 4, 4-(4-methylpyridin-3-yl)-1-(pyrazin-2-yl)-1H-benzo[d]imidazole], the IC50 turned out to be 0.037 µM.

In the case of `Cc1ccncc1-c1cccc2c1ncn2-c1cccnn1` [Example 6, 4-(4-methylpyridin-3-yl)-1-(pyridazin-3-yl)-1H-benzo[d]imidazole], the IC50 was determined as 0.25 µM.

`Cc1ccncc1-c1cccc2c1ncn2-c1cccc(C(F)(F)F)n1` [Example 9, 4-(4-methylpyridin-3-yl)-1-(6-(trifluoromethyl)pyridin-2-yl)-1H-benzo[d]imidazole]: the concentration for half-maximal inhibition (IC50) came to 0.04 µM.

`Cc1ccncc1-c1cccc2c1ncn2-c1cccc(F)n1` [Example 14, 1-(6-fluoropyridin-2-yl)-4-(4-methylpyridin-3-yl)-1H-benzo[d]imidazole]: the IC50 amounted to 0.011 µM.

Turning to `Cc1ccncc1-c1cccc2c1ncn2-c1ncc(F)cc1F` [Example 15, 1-(3,5-difluoropyridin-2-yl)-4-(4-methylpyridin-3-yl)-1H-benzo[d]imidazole], the half-inhibitory concentration (IC50) amounted to 0.758 µM.

`Cc1ccncc1-c1cccc2c1ncn2-c1ccncn1` [Example 29, 4-(4-methylpyridin-3-yl)-1-(pyrimidin-4-yl)-1H-benzo[d]imidazole]: the IC50 stood at 0.656 µM.

Consider `Cc1ccncc1-c1cccc2c1ncn2-c1ccncc1` [Example 30, 4-(4-methylpyridin-3-yl)-1-(pyridin-4-yl)-1H-benzo[d]imidazole], for which the 50% inhibitory concentration (IC50) was found to be 0.405 µM.

As for `Cc1ccncc1-c1cccc2c1ncn2CC(F)(F)F` [Example 31, 4-(4-Methylpyridin-3-yl)-1-(2,2,2-trifluoroethyl)-1H-benzo[d]imidazole], the IC50 came to 0.012 µM.

As to `Cc1ccncc1-c1cccc2c1ncn2CC#N` [Example 35, 2-(4-(4-Methylpyridin-3-yl)-1H-benzo[d]imidazol-1-yl)acetonitrile], the IC50 was 0.33 µM.

As to `Cc1ccncc1-c1cccc2c1ncn2C1CC1` [Example 37, 1-Cyclopropyl-4-(4-methylpyridin-3-yl)-1H-benzo[d]imidazole], the half-inhibitory concentration (IC50) worked out at 0.396 µM.

`FC(F)(F)Cn1cnc2c(-c3cnccc3Cl)cccc21` [Example 39, 4-(4-Chloropyridin-3-yl)-1-(2,2,2-trifluoroethyl)-1H-benzo[d]imidazole]: the IC50 is 0.361 µM.

On to `Nc1ncncc1-c1cccc2c1ncn2CC(F)(F)F` [Example 44, 5-(1-(2,2,2-Trifluoroethyl)-1H-benzo[d]imidazol-4-yl)pyrimidin-4-amine], for which the IC50 came out at 0.674 µM.

On to `CCOc1ncncc1-c1cccc2c1ncn2CC(F)(F)F` [Example 45, 4-(4-Ethoxypyrimidin-5-yl)-1-(2,2,2-trifluoroethyl)-1H-benzo[d]imidazole], for which the IC50 was determined as 0.135 µM.

In the case of `Nc1ncncc1-c1cccc2c1ncn2-c1ccc(F)cc1F` [Example 46, 5-(1-(2,4-Difluorophenyl)-1H-benzo[d]imidazol-4-yl)pyrimidin-4-amine], the IC50 is 0.797 µM.

In another test the test system is testosterone levels. Nature of the test: 1-Day Cyno PK/PD Study (plasma testosterone). Format: in vivo. The note with it: cynomolgus monkeys, single oral dose 2 mg/kg in 80% PEG-400/water, 24 hour period. Here is the method:
Example 31 was formulated in 80% PEG-400/water at a volume of 1 mL/kg of monkey and administered orally at 2 mg/kg. The formulation was then dosed orally at time=0 hours and blood samples were taken over a 24 hour period to monitor for drug exposure and testosterone levels. (♦) Example 31 (nM); (▴) testosterone (ng/dL).
1-Day Cyno PK/PD Study Protocol
Animals: All procedures involving animals and their care were conducted in conformity with the guidelines that are in compliance with the Bristol-Myers Squibb Institutional Animal Care and Use Committee. Fully mature male cynomolgus monkeys (>4 yrs of age; 5-6 kg) were from an in-house colony. All the monkeys used had chronically implanted femoral vein access ports. For oral studies, all animals were fasted overnight prior to dosing and were fed 4 hr after dosing. […]
Sampling: Blood samples were collected from the femoral port, at 15, 30, and 45 min, and 1, 2, 4, 6, 8, 12, 24, 30, and 48 hr after oral administration. […] The plasma fraction was immediately separated by centrifugation (14,000 rpm, 10 min, 4° C.), frozen on dry ice, and stored at −20° C. until the samples were analyzed.
Analysis of Tested Compound: Plasma samples were thawed and treated with two volumes of acetonitrile containing internal standard. After centrifugation to remove precipitated proteins, an aliquot of supernatant was analyzed by LC/MS/MS. […]
`Cc1ccncc1-c1cccc2c1ncn2CC(F)(F)F` [Example 31, 4-(4-Methylpyridin-3-yl)-1-(2,2,2-trifluoroethyl)-1H-benzo[d]imidazole] yielded a testosterone levels of around 15 ng/dL.
